Measurements reported in ChEMBL document CHEMBL1649229, “Efficacy of high doses of daptomycin versus alternative therapies against experimental foreign-body infection by methicillin-resistant Staphylococcus aureus” (Antimicrob Agents Chemother, 2009).
Values after ≈ are worked out from the molar mass of the structure shown. Active and inactive are the calls of the source. The rule behind the calls is not given here.

Experiments:
Staphylococcus aureus [1] = assay: Antimicrobial activity against log-phase methicillin-resistant Staphylococcus aureus HUSA 304 by M7-A6 method; type: functional
Staphylococcus aureus [2] = assay: Bactericidal activity against log-phase methicillin-resistant Staphylococcus aureus HUSA 304 after 24 hrs by time kill analysis in presence of 50 mg/L calcium ions; type: functional; conditions: HUSA 304, 24 h
Staphylococcus aureus [3] = assay: Bactericidal activity against stationary-phase methicillin-resistant Staphylococcus aureus HUSA 304 after 24 hrs by time kill analysis in presence of 50 mg/L calcium ions; type: functional; conditions: HUSA 304, 24 h
Staphylococcus aureus [4] = assay: Antimicrobial activity against methicillin-resistant Staphylococcus aureus HUSA 304 infected in Wistar rat assessed as decrease in bacterial load in tissue cage fluid at 35 mg/kg, ip administered every 12 hrs for 7 days measured on day 8 post treatment; type: functional; conditions: route intraperitoneal
Staphylococcus aureus [5] = assay: Antimicrobial activity against methicillin-resistant Staphylococcus aureus HUSA 304 infected in Wistar rat assessed as decrease in bacterial load in tissue cage fluid at 35 mg/kg, ip administered every 12 hrs for 7 days measured on day 11 post treatment; type: functional; conditions: route intraperitoneal
Staphylococcus aureus [6] = assay: Antimicrobial activity against log-phase methicillin-resistant Staphylococcus aureus HUSA 304 assessed as resistant bacteria in tissue cage fluid selected on 4 ug/ml of compound measured on day 8 post treatment; type: functional, organism-based
Staphylococcus aureus [7] = assay: Antimicrobial activity against log-phase methicillin-resistant Staphylococcus aureus HUSA 304 assessed as resistant bacteria in tissue cage fluid selected on 4 ug/ml of compound measured on day 11 post treatment; type: functional, organism-based
Staphylococcus aureus [8] = assay: Antimicrobial activity against log-phase methicillin-resistant Staphylococcus aureus HUSA 304 assessed as resistant bacteria on coverslip selected on 4 ug/ml of compound measured on day 11 post treatment; type: functional, organism-based
Staphylococcus aureus [9] = assay: Antimicrobial activity against methicillin-resistant Staphylococcus aureus HUSA 304 infected in Wistar rat assessed as decrease in bacterial load in tissue cage fluid at 50 mg/kg, ip administered every 12 hrs for 7 days measured on day 8 post treatment; type: functional; conditions: route intraperitoneal
Staphylococcus aureus [10] = assay: Antimicrobial activity against methicillin-resistant Staphylococcus aureus HUSA 304 infected in Wistar rat assessed as decrease in bacterial load in tissue cage fluid at 50 mg/kg, ip administered every 12 hrs for 7 days measured on day 11 post treatment; type: functional; conditions: route intraperitoneal

Row | Structure (SMILES) | MIC (Staphylococcus aureus [1]) [µg/mL] | MBC (Staphylococcus aureus [2]) [µg/mL] | MBC (Staphylococcus aureus [3]) [µg/mL] | log10cfu (Staphylococcus aureus [4]) | log10cfu (Staphylococcus aureus [5]) | Activity (Staphylococcus aureus [6]) | Activity (Staphylococcus aureus [7]) | Activity (Staphylococcus aureus [8]) | log10cfu (Staphylococcus aureus [9]) | log10cfu (Staphylococcus aureus [10])
1 | CO[C@H]1/C=C/O[C@@]2(C)Oc3c(C)c(O)c4c(O)c(c(/C=N/N5CCN(C)CC5)c(O)c4c3C2=O)NC(=O)/C(C)=C\C=C\[C@H](C)[C@H](O)[C@@H](C)[C@@H](O)[C@@H](C)[C@H](OC(C)=O)[C@@H]1C [RIFAMPIN] | 0.03 (≈ 0.0365 µM) | 0.5 | > 8 | 1.36 | 1.1 |  |  |  |  | 
2 | CC(=O)NC[C@H]1CN(c2ccc(N3CCOCC3)c(F)c2)C(=O)O1 [LINEZOLID] |  | > 32 | > 32 |  |  | Active | Active | Active | 1.06 | 0.93
